Publication PMC12155096 (International Journal of Molecular Sciences, 2025)
Read-outs that look alike come from different tables or passages of the source. Blank lines part the entries; values can stand above or below the compound they belong to.

Legend:
[1] = target: CYP3A4 (Homo sapiens, UniProt P08684)
[2] = target: T1, human CYP2C9 (Homo sapiens, UniProt P11712)
[3] = target: T2, human CYP1A2 (Homo sapiens, UniProt P05177)
T2 sequence (P05177 1-516): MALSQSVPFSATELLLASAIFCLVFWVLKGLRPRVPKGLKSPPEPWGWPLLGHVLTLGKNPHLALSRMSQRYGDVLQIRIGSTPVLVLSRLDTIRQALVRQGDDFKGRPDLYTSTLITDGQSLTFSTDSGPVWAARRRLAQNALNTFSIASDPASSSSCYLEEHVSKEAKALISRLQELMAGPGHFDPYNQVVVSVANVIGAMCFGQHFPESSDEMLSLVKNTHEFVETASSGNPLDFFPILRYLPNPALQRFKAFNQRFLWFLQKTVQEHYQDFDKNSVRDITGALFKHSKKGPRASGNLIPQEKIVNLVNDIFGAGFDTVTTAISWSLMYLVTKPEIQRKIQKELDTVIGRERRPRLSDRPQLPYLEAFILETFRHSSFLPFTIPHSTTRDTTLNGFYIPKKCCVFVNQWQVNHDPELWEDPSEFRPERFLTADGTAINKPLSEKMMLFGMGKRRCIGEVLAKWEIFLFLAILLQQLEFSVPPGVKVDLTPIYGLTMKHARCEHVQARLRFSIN

[4] = target: T3, human CYP2C19 (Homo sapiens, UniProt P33261)
T3 sequence (P33261 whole entry): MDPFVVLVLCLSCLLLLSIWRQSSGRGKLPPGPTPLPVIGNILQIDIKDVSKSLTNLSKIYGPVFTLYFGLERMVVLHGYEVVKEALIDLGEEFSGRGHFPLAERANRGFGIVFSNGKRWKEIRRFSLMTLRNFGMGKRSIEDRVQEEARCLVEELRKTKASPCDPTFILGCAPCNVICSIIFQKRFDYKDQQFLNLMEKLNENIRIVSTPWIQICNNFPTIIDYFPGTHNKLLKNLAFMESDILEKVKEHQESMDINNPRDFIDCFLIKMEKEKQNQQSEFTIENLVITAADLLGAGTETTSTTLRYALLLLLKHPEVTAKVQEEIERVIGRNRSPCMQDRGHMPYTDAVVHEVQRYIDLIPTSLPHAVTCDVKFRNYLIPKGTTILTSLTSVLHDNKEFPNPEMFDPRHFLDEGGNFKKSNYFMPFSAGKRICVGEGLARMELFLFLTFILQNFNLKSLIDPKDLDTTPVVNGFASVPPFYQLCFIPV

[5] = target: human CYP2D6 (Homo sapiens, UniProt P10635)
human CYP2D6, sequence (P10635 whole entry): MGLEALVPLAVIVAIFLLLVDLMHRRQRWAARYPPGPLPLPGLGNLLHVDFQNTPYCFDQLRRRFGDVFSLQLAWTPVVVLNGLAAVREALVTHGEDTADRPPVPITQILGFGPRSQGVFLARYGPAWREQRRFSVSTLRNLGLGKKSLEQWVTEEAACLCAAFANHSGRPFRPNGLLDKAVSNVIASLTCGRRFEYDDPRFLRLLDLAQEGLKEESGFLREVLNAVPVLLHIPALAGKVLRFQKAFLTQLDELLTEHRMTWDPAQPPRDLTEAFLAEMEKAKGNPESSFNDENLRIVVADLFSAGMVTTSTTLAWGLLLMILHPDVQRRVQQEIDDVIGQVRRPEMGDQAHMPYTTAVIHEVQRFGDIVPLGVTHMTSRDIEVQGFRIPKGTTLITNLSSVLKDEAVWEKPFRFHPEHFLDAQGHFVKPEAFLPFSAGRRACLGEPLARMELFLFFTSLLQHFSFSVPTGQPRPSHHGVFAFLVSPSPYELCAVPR

[6] = target: T2, human CYP1A2; assay: biochemical
[7] = target: T1, human CYP2C9; assay: biochemical
[8] = target: T3, human CYP2C19; assay: biochemical
[9] = CYP1A2 AC50 (half-maximal activity concentration)
[10] = CYP2C9 AC50 (half-maximal activity concentration)
[11] = CYP2C19 AC50 (half-maximal activity concentration)

T1 sequence (P11712 whole entry): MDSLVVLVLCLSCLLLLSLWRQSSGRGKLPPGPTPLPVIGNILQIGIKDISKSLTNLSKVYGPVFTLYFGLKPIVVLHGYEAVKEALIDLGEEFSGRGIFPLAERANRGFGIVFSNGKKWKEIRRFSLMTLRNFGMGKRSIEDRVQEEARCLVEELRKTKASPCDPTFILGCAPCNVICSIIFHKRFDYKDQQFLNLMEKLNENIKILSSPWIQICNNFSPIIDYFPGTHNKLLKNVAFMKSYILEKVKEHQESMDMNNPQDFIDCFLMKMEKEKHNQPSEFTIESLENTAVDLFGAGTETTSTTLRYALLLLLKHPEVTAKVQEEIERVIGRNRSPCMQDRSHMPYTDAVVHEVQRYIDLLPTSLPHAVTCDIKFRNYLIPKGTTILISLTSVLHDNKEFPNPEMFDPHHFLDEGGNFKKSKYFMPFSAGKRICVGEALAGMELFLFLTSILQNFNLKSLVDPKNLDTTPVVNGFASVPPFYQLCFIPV
CYP3A4, sequence (P08684 whole entry): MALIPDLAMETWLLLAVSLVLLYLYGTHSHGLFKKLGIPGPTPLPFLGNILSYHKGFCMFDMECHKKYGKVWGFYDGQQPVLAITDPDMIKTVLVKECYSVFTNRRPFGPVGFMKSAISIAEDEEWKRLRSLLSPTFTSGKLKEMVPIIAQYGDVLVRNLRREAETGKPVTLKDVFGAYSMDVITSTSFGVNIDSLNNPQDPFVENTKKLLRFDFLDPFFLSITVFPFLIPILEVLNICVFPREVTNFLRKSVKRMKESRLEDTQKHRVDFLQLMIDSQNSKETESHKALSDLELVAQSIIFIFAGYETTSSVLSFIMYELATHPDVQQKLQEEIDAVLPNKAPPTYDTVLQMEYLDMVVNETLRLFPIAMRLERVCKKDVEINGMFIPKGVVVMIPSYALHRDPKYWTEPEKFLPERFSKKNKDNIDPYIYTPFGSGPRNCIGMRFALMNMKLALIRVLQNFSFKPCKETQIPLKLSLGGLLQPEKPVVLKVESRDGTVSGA

SMILES: CC(C)(C)C(=O)C=Cc1ccc(Cl)cc1
- AC50 [1]: 20 µM
- AC50 [2]: 54 µM
- AC50 [3]: 21.2 µM
- AC50 [4]: 6.98 µM
- CYP2D6 AC50 (half-maximal activity concentration) [5]: Inactive

SMILES: CC(=O)c1cc(C(C)(C)C)cc2c1CCC2(C)C
- AC50 [1]: 10.5 µM
- AC50 [2]: 27.6 µM
- AC50 [3]: 34.4 µM
- CYP2C19 AC50 (half-maximal activity concentration) [4]: Inconclusive
- CYP2D6 AC50 (half-maximal activity concentration) [5]: Inactive

SMILES: CC(C)(c1ccc(Oc2ccc3c(c2)C(=O)OC3=O)cc1)c1ccc(Oc2ccc3c(c2)C(=O)OC3=O)cc1
- AC50 [1]: 23.4 µM
- CYP2C9 AC50 (half-maximal activity concentration) [2]: Inconclusive inhibitor
- AC50 [3]: 63.2 µM
- CYP2C19 AC50 (half-maximal activity concentration) [4]: Inconclusive inhibitor
- AC50 [5]: 37.9 µM

SMILES: CCCOC(=O)c1c(Cl)c(Cl)c(Cl)c(Cl)c1C(=O)OCCC
- AC50 [1]: 2.63 µM
- AC50 [2]: 20.1 µM
- AC50 [3]: 1.72 µM
- AC50 [4]: 12.5 µM
- CYP2D6 AC50 (half-maximal activity concentration) [5]: Inconclusive inhibitor

SMILES: C=C(C)C(=O)OCCOc1ccccc1
- AC50 [1]: 19.8 µM
- AC50 [2]: 38.6 µM
- AC50 [3]: 24.5 µM
- AC50 [4]: 28.6 µM
- CYP2D6 AC50 (half-maximal activity concentration) [5]: Inactive

SMILES: C=C(C)C(=O)OCC[N+](C)(C)C.[Cl-]
- AC50 [1]: 23.4 µM
- CYP2C9 AC50 (half-maximal activity concentration) [2]: Inactive
- AC50 [3]: 10.5 µM
- CYP2C19 AC50 (half-maximal activity concentration) [4]: Inactive
- CYP2D6 AC50 (half-maximal activity concentration) [5]: Inactive

SMILES: O=[N+]([O-])c1cccc2cccc([N+](=O)[O-])c12 [1,8-Dinitronaphthalene]
- CYP3A4 AC50 (half-maximal activity concentration) [1]: Inconclusive inhibitor
- CYP2D6 AC50 (half-maximal activity concentration) [5]: Inconclusive inhibitor

- AC50 [6]: 14.4 µM
- AC50 [7]: 9.3 µM
- AC50 [8]: 71.9 µM
- CYP2D6 AC50 (half-maximal activity concentration) [5]: Inactive
SMILES: Cc1cc(O)c(Cl)c(C)c1Cl [2,4-Dichloro-3,5-dimethylphenol]

SMILES: Brc1ccccc1-c1ccccc1 [2-Bromobiphenyl]
- AC50 [6, 9]: 17 µM

SMILES: O=S(=O)(c1ccc(O)cc1)c1ccc(O)cc1 [4,4'-Sulfonyldiphenol]
- CYP3A4 AC50 (half-maximal activity concentration) [1]: Inactive
- AC50 [7, 10]: 1.34 µM
- CYP1A2 AC50 (half-maximal activity concentration) [3]: Inconclusive inhibitor
- AC50 [8, 11]: 16.4 µM
- CYP2D6 AC50 (half-maximal activity concentration) [5]: Inactive

- CYP3A4 AC50 (half-maximal activity concentration) [1]: Inactive
- AC50 [7]: 36.2 µM
- CYP1A2 AC50 (half-maximal activity concentration) [3]: Inconclusive inhibitor
- CYP2C19 AC50 (half-maximal activity concentration) [4]: Inactive
- CYP2D6 AC50 (half-maximal activity concentration) [5]: Inactive
SMILES: CC(=O)c1ccc(O)cc1 [4-Hydroxyacetophenone]

SMILES: CCc1oc2ccccc2c1C(=O)c1cc(Br)c(O)c(Br)c1 [Benzbromarone]
- AC50 [6, 9]: 28.9 µM

SMILES: O=C(c1ccccc1)c1ccccc1 [Benzophenone]
- AC50 [6, 9]: 13.7 µM
- AC50 [7, 10]: 28.4 µM

SMILES: O=C(OCc1ccccc1)c1ccccc1 [Benzyl benzoate]
- AC50 [6, 9]: 14.9 µM
- AC50 [7, 10]: 27.7 µM
- AC50 [8, 11]: 21.3 µM

SMILES: NS(=O)(=O)c1cc2c(cc1Cl)CN(C1CCCCC1)C2=O [Chlorexolone]
- CYP3A4 AC50 (half-maximal activity concentration) [1]: Inactive
- AC50 [7, 10]: 14.4 µM
- CYP1A2 AC50 (half-maximal activity concentration) [3]: Inactive
- CYP2C19 AC50 (half-maximal activity concentration) [4]: Inconclusive activator
- CYP2D6 AC50 (half-maximal activity concentration) [5]: Inactive

SMILES: O=C(Nc1ccc(Cl)c(Cl)c1)C1CC1 [Cypromid]
- IC50 ([6]; CYP1A2 IC50 (half-maximal inhibitory concentration)): 0.54 µM
- IC50 ([7]; CYP2C9 IC50 (half-maximal inhibitory concentration)): 25.3 µM
- CYP2C9 Efficacy (in parenthesis) ([2]; human): 25.27 ± 7.04 (-70 ± 11) %
- CYP1A2 Efficacy (in parenthesis) ([3]; human): 0.54 ± 0.08 (-97 ± 6) %
- IC50 ([8]; CYP2C19 IC50 (half-maximal inhibitory concentration)): 12.1 µM
- CYP2C19 Efficacy (in parenthesis) ([4]; human): 12.07 ± 3.02 (-106 ± 21) %

- AC50 [6]: 1.58 µM
- AC50 [7]: 33.4 µM
- AC50 [8]: 8.39 µM
SMILES: O=C1c2ccccc2CCc2ccccc21 [Dibenzosuberone]

SMILES: CCOC(=O)c1ccccc1C(=O)OCC [Diethyl phthalate]
- AC50 [6, 9]: 3.24 µM

SMILES: C[C@]12CC[C@@H]3c4ccc(O)cc4CC[C@H]3[C@@H]1CC[C@@H]2OC(=O)CCC1CCCC1 [Estradiol cypionate]
- AC50 [6, 9]: 16.6 µM
- AC50 [7, 10]: 16.1 µM
- AC50 [8, 11]: 26 µM
